# Where “and” joins values, the source holds several entries; their conditions need not be identical. Equal values may be shown once.
# Key:
# Ethanol ulcer = Ethanol ulcer inhibiting activity; assay type: in vivo, Male wister rats; details: rat; for ED50: po, P.O., 30 minutes before 99.5% ethanol
# Experimental: Ethanol ulcer inhibiting activity
# Male wister rats having a weight of from 170 to 270 g were put into individual cages and starved for 24 hours. During this starvation period, the rats were allowed to drink water freely. A test compound or PGE2 as a comparative compound was orally administered in an amount of 3, 10 or 30 μg/kg, and 30 minutes later, 1 ml of 99.5% ethanol was orally administered to each rat. One hour after the ethanol administration, each rat was filled by cervical vertebral luxation, and the stomach was taken out. A 1% formaline solution was injected into the stomach in an amount of about 8 ml, and the stomach was fixed in the formaline solution for 30 minutes. After the fixing, the stomach was severed along the greater curvature, and the mucous membrane surface of the stomach was gently washed with flowing water. Then, the total length of damages appearing on the gastric glandular portion was obtained and used as the ulcer index.
# The ethanol ulcer inhibiting activity of a test compound was represented by ED50 (i.e. the dose of the test compound at which the ulcer was inhibited by 50% relative to the ulcer index of the non-treated group). To the non-treated group, the solvent was administered.
# ulcer = experiment: Anti-ulcer activity (general statement); assay type: in vivo, animals; details: compared with typical PG such as PGE2
# Excerpt: On the basis of this discovery, a further research has been made for the application to the prevention and treatment of digestive organ ulcers, and have accomplished the present invention.
# diastolic blood pressure = experiment: Hypotensive activity, anesthetized dog; assay type: in vivo, crossbred adult dog; details: for Hypotensive activity, blood pressure decrease: at 10 μg/kg i.v.; for Activity ratio, hypotensive activity: relative to prostacyclin = 1
# Experimental: A male or female crossbred adult dog having a weight of from 9 to 14 kg was anesthetized by intraveous administration of sodium Pentobarbital. Then, the left carotid was exposed under artificial respiration, and the blood pressure was measured by using an electric blood pressure meter. […]
# [1] = tested on: Blood platelet (ADP agglutination); experiment: Blood platelet agglutination inhibiting activity (ADP-induced), washed rabbit platelet suspension; assay type: cell-based, rabbit (Japanese white male rabbits); details: for IC50: Oryctolagus cuniculus, Platelet, ADP 10 μM, concentration suppressing agglutination to 50%, read-out: Platelet agglutination inhibiting activity ED50, ADP agglutination; for Activity ratio, platelet agglutination inhibiting activity, ADP agglutination: relative to prostacyclin = 1
# Experimental: (§1) Blood platelet aggutination inhibiting activity
# (§2) Japanese white male rabbits having a weight of from 2.0 to 2.5 kg were used.
# (§3) Under anesthesia with sodium Pentobarbital, blood was sampled from the carotid artery, and mixed with a 1/7 volume of an anticoagulant citric acid dextrose solution. Then, the mixture was subjected to centrifugal separation at 140×g for 15 minutes, whereupon the supernatant (platelet rich plasma:PRP) was obtained. PRP was subjected to centrifugal separation at 1,300×g for 7 minutes. The blood platelet pellets thus obtained were washed with a HEPES buffer solution (pH 6.5) for washing blood platelets, and subjected to centrifugal separation at 1,300×g for 7 minutes. The blood platelet pellets washed twice under such condition, were suspended in a suspending liquid (a buffer solution for washing blood platelets, which contains 0.1% of human fibrinogen, 1.8 mM of CaCl2 and 1.2 mM of MgCl2) to obtain a blood platelet suspension having a concentration of from 5×10^8 to 8×10^8 platelets/ml.
# (§4) The platelet agglutination ability was measured by means of an agglutination meter. To 380 μl of the platelet suspension, 10 μl of a test compound or a solvent as the control, was added. Three minutes later, 10 μl of a platelet agglutinating substance (10 μM of ADP or 1 μg/ml of collagen, as the final concentration) was added thereto to induce agglutination.
# (§5) The blood platelet agglutination inhibiting activity of each test compound was represented by ED50 (i.e. the concentration of the test compound where the platelet agglutination is suppressed to 50%).
# Hydrochloric acid ulcer = Hydrochloric acid ulcer inhibiting activity; assay type: in vivo, wister rats; details: rat; oral administration of 30 μg/kg; 0.6N hydrochloric acid; read-out: Hydrochloric acid ulcer inhibiting activity, Inhibiting rate
# Experimental: Hydrochloric acid ulcer inhibiting activity
# Male wister […] having a weight of from 190 to 240 g were used. The rats were starved in the same manner as in Test Example 6, and the test compounds and PGE2 were, respectively, orally administered in an amount of 30 μg/kg, and 30 minutes later, 1 ml of 0.6N hydrochloric acid was orally administered. Thirty minutes after the hydrochloric acid administration, each rat was killed by cervical vertebral luxation. Then, the stomach was taken out and fixed, and the ulcer index was obtained, in the same manner as in Test Example 6. The hydrochloric acid ulcer inhibiting activity of a test compound was represented by the inhibiting percentage (i.e. the percentage of the ulcer index of the treated group to the ulcer index of the non-treated group). To the non-treated group, the solvent was administered.
# [2] = tested on: Blood platelet (Collagen agglutination); experiment: Blood platelet agglutination inhibiting activity (collagen-induced), washed rabbit platelet suspension; assay type: cell-based, rabbit (Japanese white male rabbits); details: for Activity ratio, platelet agglutination inhibiting activity, Collagen agglutination: relative to prostacyclin = 1; for IC50: Oryctolagus cuniculus, Platelet, collagen 1 μg/ml, concentration suppressing agglutination to 50%, read-out: Platelet agglutination inhibiting activity ED50, Collagen agglutination
# Experimental: as §1, §2, §3, §4, §5
# coronary artery = experiment: Blood flow-increasing activity in the coronary artery, anesthetized dog; assay type: in vivo, crossbred adult dog; details: for ED50: Canis lupus familiaris, dog, near arterial injection, reactive hyperemia = 100%; for Activity ratio, blood flow-increasing activity in coronary artery: relative to prostacyclin = 1
# Experimental: Blood flow-increasing activity in the coronary artery
# A crossbred adult dog having a weight of from 9 to 15 kg was anesthetized with sodium Pentobarbital and subjected to thoractomy under artificial respiration. After pericardiectomy, the frontal descending branch of the left coronary artery was separated from the surrounding tissues, and a blood flow-measuring probe was attached thereto under sodium heparin treatment. The coronary blood flow was measured by using an electromagnetic flow meter. The test compound was injected into the coronary artery by near arterial injection, and the blood flow-increasing activity in the coronay artery was represented by ED50 (i.e. the dose of a test compound at which the blood flow increases by 50%, as evaluated on the basis that the blood flow increase by the reactive hyperemia caused by releasing the blood flow of the coronary artery after blocking it for 15 seconds, is evaluated to be 100%).
# vertebral artery = experiment: Blood flow-increasing activity in the vertebral artery, anesthetized dog; assay type: in vivo, crossbred adult dog; details: for ED50: Canis lupus familiaris, papaverine hydrochloride 100 μg/kg = 100%; for Activity ratio, blood flow-increasing activity in vertebral artery: relative to prostacyclin = 1
# Excerpt: Blood flow-increasing activity in the vertebral artery
# A made or female crossbred adult dog having a weight of from 8 to 13 kg was anesthetized by intravenous administration of sodium Pentobarbital and subjected to thoractomy along the mediam line under artificial respiration to expose the left vertebral artery. Under sodium peparin treatment, a polyethylene cannula was inserted into the vertebral artery, and a blood flow-measuring probe was attached to its other end, to which a blood circulation tube led from the left femoral artery was connected, whereby the blood flow in the vertebral artery was measured by using an electromagnetic flow meter. The test compound was injected into the vertebral artery by near arterial injection, and the blood flow-increasingactivity in the vertebral artery was represented by ED50 (i.e. the dose of a test compound at which the blood flow increases by 50%, as evaluated on the basis that the blood flow increase (representing substantially the maximum reaction) by the administration of 100 μg/kg papaverine hydrochloride into the vertebral artery, is evaluated to be 100%).
# femoral artery = experiment: Blood flow-increasing activity in the femoral artery, anesthetized dog; assay type: in vivo, crossbred adult dog; details: for ED50: Canis lupus familiaris, dog, near arterial injection, papaverine hydrochloride 100 μg/kg = 100%; for Activity ratio, blood flow-increasing activity in femoral artery: relative to prostacyclin = 1
# Experimental: Blood flow-increasing activity in the femoral artery
# A male or female crossbred adult dog having a weight of from 8 to 13 kg, was anesthetized by intravenous administration of sodium Pentobarbital. Then, a tracheal cannula was inserted, and artificial respiration was conducted. The blood flow in the femoral artery was measured by inserting the annula into the left femoral artery under sodium heparin treatment and providing a blood flow measuring probe at it other end, and by using an electromagnetic flow meter. The test compound was injected into the femoral artery by near arterial injection, and the blood flow-increasing activity in the femoral artery was represented by ED50 (i.e. the dose of a test compound at which the blood flow increases by 50%, as evaluated on the bais that the blood flow increase (representing substantially the maximum reaction) by the administration of 100 μg/kg of papaveline hydrochloride into the femoral artery, is evaluted to be 100%).
# Indomethacine ulcer = Indomethacine ulcer inhibiting activity; assay type: in vivo, Male wister rats; details: rat; oral administration of 60 μg/kg twice
# Excerpt: Indomethacine ulcer inhibiting activity
# Male wister rats having a weight of from 210 to 270 g were used. The rats were starved in the same manner as in Test Example 6. […] Three hours after the indomethacine administration, the test compound or PGE2 was again orally administered in the same amount. Six hours after the first administration of indomethacine, each rat was killed by cervical bertebral luxation. The stomach was taken out and fixed, and the ulcer index was obtained, in the same manner as in Test Example 6.
# The indomethacine ulcer inhibiting activity of a test compound was represented by the inhibiting percentage (i.e. the inhibiting percentage of the ulcer index of the treated group to the ulcer index of the non-treated group). To the non-treated group, the solvent was administered.
# [3] = tested on: blood flow of various organs; experiment: Blood flow increasing activity in various organs (general statement); details: in vivo
# [4] = background; cited from earlier work
IC50 [1] [µM],IC50 [2] [µM],SMILES,ED50 (Ethanol ulcer) [µg/kg],Anti-ulcer activity (in words) (ulcer),"Hypotensive activity, blood pressure decrease (diastolic blood pressure; dog) [mmHg]","Activity ratio, hypotensive activity (diastolic blood pressure)","Activity ratio, platelet agglutination inhibiting activity, ADP agglutination [1]",inhibition in vivo at 0.03 mg/kg (Hydrochloric acid ulcer) [%],"Activity ratio, platelet agglutination inhibiting activity, Collagen agglutination [2]",ED50 (coronary artery) [µg/kg],"Activity ratio, blood flow-increasing activity in coronary artery (coronary artery)","ED50 (vertebral artery; dog, near arterial injection) [µg/kg]","Activity ratio, blood flow-increasing activity in vertebral artery (vertebral artery)",ED50 (femoral artery) [µg/kg],"Activity ratio, blood flow-increasing activity in femoral artery (femoral artery)","Indomethacine ulcer inhibiting activity, Inhibiting rate (Indomethacine ulcer) [%]",Activity to increase the blood flow (in words) [3],further results
0.023,–,"CCC#CCC(C)[C@H](O)/C=C/[C@@H]1[C@H]2CCC(CCCCC(=O)O)=C[C@H]2C[C@H]1O (stereo partly drawn) [(f), 3-(4-carboxybutyl)-7-exo-(3α-hydroxy-4,8-dimethyl-trans-1-octen-6-ynyl)-8-endo-hydroxy-cis-bicyclo[4,3,0]nona-2-ene]",2.92,"comparable or superior to typical PG having anti-ulcer activities, such as PGE2",33,1/77,1/8,20.5,1/8,1.75,1/269,0.57,1/13,0.56,1/23,38.8,–,–
0.077,0.044,"CCC#CCC(C)[C@H](O)/C=C/[C@@H]1[C@H]2CCC(CCCC(=O)O)=C[C@H]2C[C@H]1O (stereo partly drawn) [(b), 3-(3-carboxypropyl)-7-exo-(3α-hydroxy-4,8-dimethyl-trans-1-octen-6-ynyl)-8-endo-hydroxy-cis-bicyclo[4,3,0]nona-2-ene]",2.79,"comparable or superior to typical PG having anti-ulcer activities, such as PGE2",27.9,about 1/135,1/27,54.8,1/12,1.2,1/120,0.75,1/17,0.35,1/15,99.4,"activity to increase the blood flow of the vertebral artery, coronary artery and femoral artery",–
0.0087,–,"CCC#CCC(C)[C@H](O)/C=C/[C@@H]1[C@H]2CCC(C=CCCC(=O)O)=C[C@H]2C[C@H]1O (stereo partly drawn) [(d), 3-(4-carboxy-1-butenyl)-7-exo-(3α-hydroxy-4,8-dimethyl-trans-1-octen-6-ynyl)-8-endo-hydroxy-cis-bicyclo[4,3,0]nona-2-ene]",2.55,"comparable or superior to typical PG having anti-ulcer activities, such as PGE2",–,1/36,1/3,24.1,–,0.38,1/38,1.9,1/43,0.9,1/38,73.5,–,"ED (50 mmHg) (diastolic blood pressure; Canis lupus familiaris, iv, dog, femoral vein, Table 1, read-out: Hypotensive activity ED50 (dose reducing diastolic blood pressure by 50 mmHg)): 8.7 µg/kg"
–,–,"CCCCC[C@H](O)/C=C/[C@@H]1[C@H]2CC(CCCCC(=O)O)=C[C@H]2C[C@H]1O [isocarbacyclin, 9(O)-methano-Δ^6(9α) -PGI1]",–,–,–,–,–,–,–,–,–,–,–,–,–,–,–,Chemical stability (in words) [4]: adequately chemically stable
0.05,0.073,"CCCCC[C@H](O)/C=C/[C@@H]1[C@H]2CCC(C=CCCC(=O)O)=C[C@H]2C[C@H]1O [(c), 3-(4-carboxy-1-butenyl)-7-exo-(3α-hydroxy-trans-1-octenyl)-8-endo-hydroxy-cis-bicyclo[4,3,0]nona-2-ene]",–,–,27.9,about 1/125 and 1/125,1/17,13.5,1/21,2.1,1/210,–,–,0.56,1/23,–,activity to increase the blood flow of various organs to a proper extent,"Ethanol ulcer inhibition (Ethanol ulcer; oral administration of 30 μg/kg): 31.7%; Blood flow increase in vertebral artery (vertebral artery; dog, at 3 μg/kg, near arterial injection): 36.9%; Indomethacine ulcer inhibition (in words) (Indomethacine ulcer): Certain inhibition"
